The molecules below were run against Proto-oncogene tyrosine-protein kinase Src (Homo sapiens, UniProt P12931) (assay: Inhibitory concentration against Src protein tyrosine kinase SH2 domain).
Chain of Proto-oncogene tyrosine-protein kinase Src (P12931 2-536 limits assumed): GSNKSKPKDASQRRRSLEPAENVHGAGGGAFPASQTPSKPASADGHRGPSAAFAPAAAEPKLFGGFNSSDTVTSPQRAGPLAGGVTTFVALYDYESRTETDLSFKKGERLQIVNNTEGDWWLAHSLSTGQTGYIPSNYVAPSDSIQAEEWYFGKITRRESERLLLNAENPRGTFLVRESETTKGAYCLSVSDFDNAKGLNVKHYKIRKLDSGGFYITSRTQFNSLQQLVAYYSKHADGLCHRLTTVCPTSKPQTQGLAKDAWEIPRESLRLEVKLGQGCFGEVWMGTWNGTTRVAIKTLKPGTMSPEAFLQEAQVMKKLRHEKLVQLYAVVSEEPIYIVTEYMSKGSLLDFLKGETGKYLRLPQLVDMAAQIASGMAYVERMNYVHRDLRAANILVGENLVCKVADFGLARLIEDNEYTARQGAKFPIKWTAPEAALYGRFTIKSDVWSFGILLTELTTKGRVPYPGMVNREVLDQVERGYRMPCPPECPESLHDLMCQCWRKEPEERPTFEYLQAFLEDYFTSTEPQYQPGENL

Compound | IC50
CC[C@H](C)[C@H](N)C(=O)N[C@@H](CCC(=O)O)C(=O)N[C@@H](CCC(=O)O)C(=O)N[C@@H](Cc1ccccc1)C(=O)O | > 100 µM
CC[C@H](C)[C@H](N)C(=O)N[C@@H](CCC(=O)O)C(=O)N[C@@H](CCC(=O)O)C(=O)N[C@@H](Cc1ccc(OP(=O)(O)O)cc1)C(=O)O | > 100 µM
CC[C@H](C)[C@H](NC(=O)[C@H](CCC(=O)O)NC(=O)[C@H](CCC(=O)O)NC(=O)[C@@H](N)Cc1ccccc1)C(=O)O | > 100 µM
CC[C@H](C)[C@H](NC(=O)[C@H](CCC(=O)O)NC(=O)[C@H](CCC(=O)O)NC(=O)[C@@H](N)Cc1ccc(O)cc1)C(=O)O | > 100 µM
CC[C@H](C)[C@H](N)C(=O)N[C@@H](CCC(=O)O)C(=O)N[C@@H](CCC(=O)O)C(=O)N[C@@H](Cc1ccc(O)cc1)C(=O)O | > 100 µM
